Values quoted from earlier work in US7592331B2, “Macrocyclic factor VIIa inhibitors useful as anticoagulants” (Bristol-Myers Squibb Company, priority 2005, dated 2009).

Legend:
[1] = tested on: patients with acute coronary syndromes
[2] = tested on: patients undergoing total knee replacement
[3] = tested on: patients undergoing coronary angioplasty

For “recombinant nematode anticoagulant protein c2 [rNAPc2]”, the “magnitude and duration of ischemic events” value [1] is given as “reduces magnitude and duration of ischemic events”, the deep vein thrombosis [2] is given as “prevents deep vein thrombosis” and the systemic thrombin generation [3] is given as “reduces systemic thrombin generation”.
